Patent US5760230A, “4, 4'-bridged bis-2, 4-diaminoquinazolines” (Bayer Aktiengesellschaft, priority 1996, dated 1998)

Legend:
[1] = molecular target: apamine binding sites (bovine cerebral membrane, hippocampus); experiment: Binding of ^125 I-apamine to bovine cerebral membrane; conditions: 30 pM ^125 I-apamine, calf hippocampus membranes, pH 7.4, 60 min on ice
Description: The compounds according to the invention are ligands for apamine-sensitive potassium channels. This can be shown by studying the affinity for apamine binding sites, e.g. in bovine cerebral membranes.
1) Binding of ^125 I-apamine to bovine cerebral membrane
Calf brains were obtained from the local abattoir. The hippocampus was prepared on ice and a membrane suspension was made up by homogenization twice in buffer (100 mM Tris-HCl, KCl 5 mM, pH 7.4) and centrifugation at 43,000×g. In a total volume of 500 μl, the incubation mixture contained 200 μg of membrane protein, 30 pM ^125 I-apamine and test substances in the concentration range 1×10^-9 to 1×10^-4 M. The non-specific binding of ^125 I-apamine was determined in the presence of 1×10^-7 M unlabelled apamine.
After preincubation for 30 min at room temperature (test substances and membrane homogenate), the samples were placed on ice for 10 min before the radioligand was added. The main incubation time was 60 min on ice. When the reaction time had elapsed, an excess of ice-cooled incubation buffer was added to each sample and the mixture was filtered with suction through cellulose acetate/nitrate membrane filters. The amount of bound ^125 I-apamine was measured with a gamma counter.

[2] = tested on: potassium channels (PC12 cells); experiment: Non-radioactive Rb^+ efflux assay for the identification of potassium channel modulators in PC12 cells; assay type: cell-based; conditions: Rattus norvegicus, PC-12, 10 min, test concentration of 10 μM, 50 mM KCl stimulation
Description: 2) Non-radioactive Rb^+ efflux assay for the identification of potassium channel modulators
The potassium in PC12 cells is exchanged with rubidium, which is not present in the cells. This exchange is performed by incubating the cells over a period of 4 h in a physiological buffer containing 5.4 mM RbCl without KCl. This rubidium subsequently serves as a tracer for potassium.
The cells laden with Rb^+ in this way are washed three times and then stimulated by depolarization with 50 mM KCl to open potassium channels (10 min), causing Rb^+ to flow out of the cells into the supernatant according to the concentration gradient.
The rubidium contents in the cell supernatant and in the residual cells after they have been lysed with 1% Triton X-100 are then determined by means of atomic absorption spectroscopy. The relative proportion of rubidium in the cell supernatant (=Rb^+ efflux) is used as a measure of the potassium channel activity.
The effect of substances on the channel activity is measured by co-incubating, the test substance over the ten-minute stimulation period and determining its effect on the Rb^+ efflux in the manner described above.

SMILES | Ki [1] [nM] | inhibition at 10 µM [2] [%]
CCN(CC)c1nc(NCC2CCCC(CNc3nc(N(CC)CC)nc4ccccc34)C2)c2ccccc2n1 (mixture of isomers) [Example 1, 1,3-Bis-[(2-diethylamino-4-quinazolyl)-aminomethyl]-cyclohexane (cis/trans isomeric mixture)] | 160 | 80
CCN(CC)c1nc(NCCCNc2nc(N(CC)CC)nc3ccccc23)c2ccccc2n1 [Example 3] |  | 81
CCN(CC)c1nc(NCCCCCNc2nc(N(CC)CC)nc3ccccc23)c2ccccc2n1 [Example 2] | 8 | 
